Read-outs that look alike come from different tables or passages of the source.
Columns and labels:
[1] = tested on: pain following wisdom tooth extraction under local anaesthesia; assay: pilot study using a dental pain model, visual analogue scale pain scores; type: in vivo, patients; settings: VAS score, calculated from the trial of Example 5, lower = less pain
Procedure: Pain scores at rest and on activity were measured by visual analogue scales which were used to derive an area-under-the curve (AUC) pain score. A lower AUC represents better pain relief.
A lower VAS score is consistent with less pain due to better pain relief. […] Pain scores were calculated as means over the first dose interval rather than AUC values to allow comparison with literature values for paracetamol in the dental pain model.

[2] = tested on: postoperative pain after third molar surgery; settings: VAS, paracetamol 1000 mg, RA Seymour et al 2003, cited from earlier work

Row | Compound | Mean Pain Score at Rest (over first dose interval) [1] | Mean Pain Score at Rest ([2]; 0-30 minutes) | Mean Pain Score at Rest ([2]; over 4 hours)
1 | CC(C)Cc1ccc(C(C)C(=O)O)cc1 (stereo not drawn) [Ibuprofen] | 28 mm | – | –
2 | CC(=O)Nc1ccc(O)cc1 [Paracetamol] | – | 46-48 mm | 42 mm

Reference: US10532036B2, “Combination composition” (AFT Pharmaceuticals Ltd, priority 2004, dated 2020)
